The source of these data is patent US8022064B2, “Phenylpentadienoyl derivatives and their use as PAR 1 antagonists” (Pierre Fabre Medicament, priority 2006, dated 2011).

The target of the assay is T1, PAR-1 receptor (Cricetulus griseus, UniProt A0A8C2QJ57).
T1 construct: Chinese hamster ovarian (CHO) cells constituently express PAR-1 receptor; endogenous in cells; host or cells: CHO cells
T1 sequence (A0A8C2QJ57 22-428): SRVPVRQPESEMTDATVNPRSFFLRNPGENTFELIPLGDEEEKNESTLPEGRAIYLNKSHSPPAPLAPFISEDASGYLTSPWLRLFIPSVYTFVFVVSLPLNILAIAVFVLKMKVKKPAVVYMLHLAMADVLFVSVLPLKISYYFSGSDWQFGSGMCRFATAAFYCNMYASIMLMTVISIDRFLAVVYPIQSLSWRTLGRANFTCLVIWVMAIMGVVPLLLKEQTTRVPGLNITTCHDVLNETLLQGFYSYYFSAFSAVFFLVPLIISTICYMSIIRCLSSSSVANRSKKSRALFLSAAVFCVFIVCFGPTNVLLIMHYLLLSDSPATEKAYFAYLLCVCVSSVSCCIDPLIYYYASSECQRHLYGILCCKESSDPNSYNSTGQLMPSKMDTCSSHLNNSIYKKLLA
In words: Calcium release (FLIPR) antagonism of SFLLR-activated PAR-1 in CHO cells. The assay is classed as cell-based, Chinese hamster. The settings on record: SFLLR agonist, Schild method from EC50 shifts at three concentrations, read-out: pA2 (converted). The procedure:
In a variety of cell types, activation of PAR-1 receptors by the SFLLR peptide (a selective PAR-1 agonist) triggers an intracellular signal cascade leading to the release of calcium by the endoplasmic reticulum. Chinese hamster ovarian (CHO) cells constituently express PAR-1 receptor. In this cell line, the release of calcium consecutive to receptor activation by SFLLR is measured by a fluorometry technique (fluorometric imaging plate reader, or FLIPR) using a selective probe for calcium (Fluo-3AM). The emission of fluorescence is pharmacologically proportional to the efficiency of the PAR-1 agonist and to its concentration.
Culture medium: Ham's F-12 (Ham, R. G., Proc. Nat. Acad. Sci. 1965, 53: 288) supplemented with 10% fetal calf serum and […].
Fluorescent probe: Fluo-3AM (4 μM; Teflabs, Austin, Tex., USA)
Agonist: SFLLR-NH2 (Serine, phenylalanine, leucine, leucine, arginine).
Methods: CHO cells are inoculated in 96-well plates (60,000 cells per well) in the presence of 200 μl of culture medium for 24 hours. The cells are incubated with the calcium fluorescent probe for 1 hour at 37° C. The cells are then washed 10 minutes before the signal is measured. PAR-1 antagonist is then injected (0.01 μM to 10 μM). The plates are placed in the FLIPR (Molecular Devices, UK) to measure calcium fluorescence at two wavelengths (488 nm and 540 nm: Sullivan et al., Calcium Signaling Protocols 1999, 125-136). Measurements are taken for 5 min before the antagonist is added and for 10 min following its administration. Maximum fluorescence minus baseline fluorescence is measured in 4 different wells. The test is carried out in duplicate. Under these conditions, the derivatives of the present invention were identified as PAR-1 receptor antagonists (antagonism >60% of the calcium signal at 10 μM). The dose-response curves (0.01 μM to 32 μM) obtained with the SFLLR agonist allowed determination of the effective concentration inducing 50% of the maximum effect (EC50). The strengths (pA2) of some of the PAR-1 antagonists described in the present invention were calculated using the method of Arunlakshana and Schild (Brit. J. Pharmacol., 1959, 14: 48-58) from the EC50 shifts observed at three concentrations.
In the case of `N#Cc1ccccc1/C=C/C=C/C(=O)N1CCN(C2CCCC2)CC1` [Example 2, 2-[5-(4-Cyclopentyl-piperazin-1-yl)-5-oxo-penta-1,3-dienyl]-benzonitrile], the Kb was 0.234 µM. As to `O=C(/C=C/C=C/c1ccccc1Cl)N1CCN(C2CCCC2)CC1` [Example 9, 5-(2-Chloro-phenyl)-1-(4-cyclopentyl-piperazin-1-yl)-penta-2,4-dien-1-one], the Kb is 0.229 µM. `O=C(/C=C/C=C/c1ccccc1[N+](=O)[O-])N1CCN(C2CCCC2)CC1` [Example 18, 1-(4-Cyclopentyl-piperazin-1-yl)-5-(2-nitro-phenyl)-penta-2,4-dien-1-one]: the Kb was 0.0692 µM. As to `N#Cc1ccccc1/C=C/C=C/C(=O)N1CCN(c2ccccn2)CC1` [Example 1, 2-[5-Oxo-5-(4-pyridin-2-yl-piperazin-1-yl)-penta-1,3-dienyl]-benzonitrile], the Kb was 0.316 µM. Turning to `O=C(C=CC=Cc1ccccc1[N+](=O)[O-])N1CCN(c2ccccn2)CC1` [Example 21, 5-(2-Nitro-phenyl)-1-(4-pyridin-2-yl-piperazin-1-yl)-penta-2,4-dien-1-one], the Kb is 0.0776 µM. In the case of `O=C(/C=C/C=C/c1ccccc1[N+](=O)[O-])N1CCN(c2ccccc2)CC1` [Example 16, 5-(2-Nitro-phenyl)-1-(4-phenyl-piperazin-1-yl)-penta-2,4-dien-1-one], the Kb is 0.0589 µM.
